Source: patent US4348410A, “Cyclohexane carboxylic acid derivatives” (Nippon Chemiphar Co., Ltd., priority 1979, dated 1982)

Legend:
plasmin = conditions: A. Okano et al, J. Med. Chem., Vol. 15, No. 3, 247 (1972); cited from earlier work
trypsin = target: T1, trypsin (Bos taurus, UniProt P00760); test: Inhibitory effects on trypsin (hydrolysis of p-tosylarginine methyl ester); format: biochemical; conditions: 37° C., 10 minutes; concentration not given
T1 sequence (P00760 24-246): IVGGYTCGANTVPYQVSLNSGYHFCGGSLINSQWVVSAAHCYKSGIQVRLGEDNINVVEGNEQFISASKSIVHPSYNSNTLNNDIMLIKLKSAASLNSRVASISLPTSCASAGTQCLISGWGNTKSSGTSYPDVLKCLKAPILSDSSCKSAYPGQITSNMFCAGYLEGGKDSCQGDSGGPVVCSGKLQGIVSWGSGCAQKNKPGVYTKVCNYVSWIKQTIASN
Experimental: In particular, inhibitory effects of the compounds on hydrolysis of p-tosylarginine methyl ester by trypsin were examined (incubated at 37° C. for 10 minutes).

acetic acid ulcers = test: Acetic acid ulcers; format: in vivo, Male Sprague-Dawley strain rats; conditions: for Ulcer Grade 1 (number of rats): ulcer area 0-10 mm^2; for Ulcer Grade 2 (number of rats): ulcer area 11-20 mm^2; for Ulcer Grade 3 (number of rats): ulcer area 21-30 mm^2; for Ulcer Grade 4 (number of rats): ulcer area 31-40 mm^2; for Ulcer Grade 5 (number of rats): ulcer area >40 mm^2
Experimental: Male Sprague-Dawley strain rats, weighing about 200 g were used. Under ether anesthesia 10% acetic acid solution (0.05 ml) was injected carefully between the serous membrane and the muscle near the pylorus, and the abdomen was closed. Thereafter, the animals were maintained under conditions and administered 1 ml/100 g of each test drug dissolved or suspended in 0.5% carboxymethylcellulose solution p.o. daily×10 starting from the next day of the operation. On the 11th day, the rats were sacrificed under ether anesthesia, and the stomachs were removed. The area of the ulcer was measured and graded into 5 degrees as an ulcer index according to the following method: […]

chymotrypsin = chymotrypsin (Bos taurus, UniProt P00766); test: Inhibitory effects on chymotrypsin (hydrolysis of N-acetyl-L-tyrosine ethyl ester); format: biochemical; conditions: 37° C., 10 minutes; concentration not given
Experimental: The compounds of the formula (I) have excellent inhibitory effects on protease. The inhibitory effects were determined by the following methods: Inhibitory effects on the compounds of chymotrypsin were determined according to the method described by M. […] In particular, inhibitory effects of the compounds on hydrolysis of N-acetyl-L-tyrosine ethyl ester by chymotrypsin were examined (incubated at 37° C. for 10 minutes).

urokinase = urokinase (Homo sapiens, UniProt P00749); test: Inhibitory effects on urokinase (hydrolysis of N-acetylglycyl lysine methyl ester); format: biochemical; conditions: 37° C., 10 minutes; concentration not given
Experimental: The compounds of the formula (I) have excellent inhibitory effects on protease. The inhibitory effects were determined by the following methods: Inhibitory effects of the compounds on urokinase were determined according to the method described by A. J. Joeson et al (Throm. […]. 21, 259-272 (1969)). In particular, inhibitory effects of the compounds on hydrolysis of N-acetylglycyl lysine methyl ester by urokinase were determined (incubated at 37° C. for 10 minutes).

thrombin = thrombin (Bos taurus, UniProt P00735); test: Inhibitory effects on thrombin (hydrolysis of p-tosylarginine methyl ester); format: biochemical; conditions: 37° C., 10 minutes; concentration not given
Experimental: The compounds of the formula (I) have excellent inhibitory effects on protease. The inhibitory effects were determined by the following methods:
Inhibitory effects of the compounds on thrombin were determined according to the method described by M. Muramatsu et al (The Journal of Biochemistry, Volume 65 (1), 17 (1969)). In particular, inhibitory effects of the compounds on hydrolysis of p-tosylarginine methyl ester by thrombin were examined (incubated at 37° C. for 10 minutes).

Shay ulcers = Shay ulcers (pylorus ligation); format: in vivo, Male Sprague-Dawley strain rats; conditions: for Ulcer Grade 0 (number of rats): 0=no lesion; for Ulcer Grade 1 (number of rats): 1=hemorrhagic suffusion; for Ulcer Grade 2 (number of rats): 2=1-5 small ulcers (<3 mm); for Ulcer Grade 3 (number of rats): 3=many small ulcers (more than 5) or 1 ulcer of marked size; for Ulcer Grade 4 (number of rats): 4=many ulcers of marked size; for Ulcer Grade 5 (number of rats): 5=perforated ulcer
Experimental: The rats were sacrificed 18 hours later by an overdose of ether and the stomach removed. The stomach was incised along the greater curvature and the surface area of each lesion in forestomach was measured by the naked eye. […] 4=many ulcers of marked size 5=perforated ulcer The test drugs were given intraperitoneally, immediately after pylorus ligation.

| Compound | anti-plasmin effects (plasmin) | Inhibition (%) Trypsin (trypsin) [%] | Ulcer Grade 1 (number of rats) (acetic acid ulcers; 125 mg/kg p.o. daily×10) | Ulcer Grade 2 (number of rats) (acetic acid ulcers; 125 mg/kg p.o. daily×10) | Ulcer Grade 3 (number of rats) (acetic acid ulcers; 125 mg/kg p.o. daily×10) | Ulcer Grade 4 (number of rats) (acetic acid ulcers; 125 mg/kg p.o. daily×10) | Ulcer Grade 5 (number of rats) (acetic acid ulcers; 125 mg/kg p.o. daily×10) | Ulcer Grade 1 (number of rats) (acetic acid ulcers; 250 mg/kg p.o. daily×10) | Ulcer Grade 2 (number of rats) (acetic acid ulcers; 250 mg/kg p.o. daily×10) | Ulcer Grade 3 (number of rats) (acetic acid ulcers; 250 mg/kg p.o. daily×10) | Ulcer Grade 4 (number of rats) (acetic acid ulcers; 250 mg/kg p.o. daily×10) | Ulcer Grade 5 (number of rats) (acetic acid ulcers; 250 mg/kg p.o. daily×10) | Ulcer Grade 1 (number of rats) (acetic acid ulcers; 500 mg/kg p.o. daily×10) | Ulcer Grade 2 (number of rats) (acetic acid ulcers; 500 mg/kg p.o. daily×10) | Ulcer Grade 3 (number of rats) (acetic acid ulcers; 500 mg/kg p.o. daily×10) | Ulcer Grade 4 (number of rats) (acetic acid ulcers; 500 mg/kg p.o. daily×10) | Ulcer Grade 5 (number of rats) (acetic acid ulcers; 500 mg/kg p.o. daily×10) | Inhibition (%) Chymotrypsin (chymotrypsin) [%] | Inhibition (%) Urokinase (urokinase) [%] | Inhibition (%) Thrombin (thrombin) [%] | also measured |
| --- | --- | --- | --- | --- | --- | --- | --- | --- | --- | --- | --- | --- | --- | --- | --- | --- | --- | --- | --- | --- | --- |
| N=C(N)NCC1CCC(C(=O)O)CC1 (centres unmarked) [4-guanidinomethylcyclohexanecarboxylic acid] | little anti-plasmin effects |  |  |  |  |  |  |  |  |  |  |  |  |  |  |  |  |  |  |  |  |
| COc1cc(C=O)ccc1OC(=O)[C@H]1CC[C@H](CNC(=N)N)CC1 [Compound 2] |  | 61 | 9 | 1 | 2 | 2 | 1 | 14 | 0 | 3 | 1 | 0 | 12 | 3 | 2 | 0 | 1 | 100 | 72 | 51 |  |
| CCOC(=O)CCc1ccc(OC(=O)[C@H]2CC[C@H](CNC(=N)N)CC2)cc1 [Compound 8] |  | 51 |  |  |  |  |  |  |  |  |  |  |  |  |  |  |  | 20 | 55 | 43 | Ulcer Grade 0 (number of rats) (Shay ulcers; 200 mg/kg i.p.): 4; Ulcer Grade 1 (number of rats) (Shay ulcers; 200 mg/kg i.p.): 2; Ulcer Grade 2 (number of rats) (Shay ulcers; 200 mg/kg i.p.): 2; Ulcer Grade 3 (number of rats) (Shay ulcers; 200 mg/kg i.p.): 1; Ulcer Grade 4 (number of rats) (Shay ulcers; 200 mg/kg i.p.): 1; Ulcer Grade 5 (number of rats) (Shay ulcers; 200 mg/kg i.p.): 0; Ulcer Grade 1 (number of rats) (acetic acid ulcers; 300 mg/kg p.o. daily×10): 4; Ulcer Grade 2 (number of rats) (acetic acid ulcers; 300 mg/kg p.o. daily×10): 3; Ulcer Grade 3 (number of rats) (acetic acid ulcers; 300 mg/kg p.o. daily×10): 1; Ulcer Grade 4 (number of rats) (acetic acid ulcers; 300 mg/kg p.o. daily×10): 0; Ulcer Grade 5 (number of rats) (acetic acid ulcers; 300 mg/kg p.o. daily×10): 0 |
| CCOC(=O)c1ccccc1OC(=O)[C@H]1CC[C@H](CNC(=N)N)CC1 [Compound 9] |  | 28 | 11 | 3 | 1 | 1 | 1 | 11 | 2 | 1 | 0 | 0 | 12 | 2 | 1 | 0 | 0 | 60 | 50 | 29 |  |
| Cl.NC[C@H]1CC[C@H](C(=O)Oc2ccc(CCC(=O)O)cc2)CC1 [Compound A, 4(2hydroxycarbonylethyl)phenyl trans4-aminomethylcyclohexanecarboxylate hydrochloride, reference compound] |  | 65 |  |  |  |  |  | 4 | 8 | 3 | 2 | 0 | 7 | 6 | 1 | 0 | 1 | 0 | 32 | 30 | Ulcer Grade 0 (number of rats) (Shay ulcers; 150 mg/kg i.p.): 2; Ulcer Grade 1 (number of rats) (Shay ulcers; 150 mg/kg i.p.): 0; Ulcer Grade 2 (number of rats) (Shay ulcers; 150 mg/kg i.p.): 3; Ulcer Grade 3 (number of rats) (Shay ulcers; 150 mg/kg i.p.): 1; Ulcer Grade 4 (number of rats) (Shay ulcers; 150 mg/kg i.p.): 4; Ulcer Grade 5 (number of rats) (Shay ulcers; 150 mg/kg i.p.): 0; Ulcer Grade 0 (number of rats) (Shay ulcers; 300 mg/kg i.p.): 6; Ulcer Grade 1 (number of rats) (Shay ulcers; 300 mg/kg i.p.): 0; Ulcer Grade 2 (number of rats) (Shay ulcers; 300 mg/kg i.p.): 0; Ulcer Grade 3 (number of rats) (Shay ulcers; 300 mg/kg i.p.): 1; Ulcer Grade 4 (number of rats) (Shay ulcers; 300 mg/kg i.p.): 2; Ulcer Grade 5 (number of rats) (Shay ulcers; 300 mg/kg i.p.): 1; Ulcer Grade 1 (number of rats) (acetic acid ulcers; 300 mg/kg p.o. daily×10): 2; Ulcer Grade 2 (number of rats) (acetic acid ulcers; 300 mg/kg p.o. daily×10): 2; Ulcer Grade 3 (number of rats) (acetic acid ulcers; 300 mg/kg p.o. daily×10): 2; Ulcer Grade 4 (number of rats) (acetic acid ulcers; 300 mg/kg p.o. daily×10): 1; Ulcer Grade 5 (number of rats) (acetic acid ulcers; 300 mg/kg p.o. daily×10): 1 |
| NC[C@H]1CC[C@H](C(=O)O)CC1 [Tranexamic acid, trans-4-aminomethylcyclohexane carboxylic acid] | excellent anti-plasmin effects |  |  |  |  |  |  |  |  |  |  |  |  |  |  |  |  |  |  |  |  |
